US4626526A, “(S)-N^6 -2-hydroxypropyladenosines” (Warner-Lambert Company, priority 1984, dated 1986)

What was measured:
[1] = biological target: T1, adenosine A1 receptor (Rattus norvegicus, UniProt P25099); test: Adenosine Receptor Binding, A1 Receptor Affinity (RBA1), [3H]-CHA; settings: rat brain membranes, 1.0 nM [3H]-CHA
T1 construct: Whole brain minus cerebellum and brainstem from male Long Evans rats; from tissue; host or cells: whole brain minus cerebellum and brainstem, male Long Evans rats, membranes
T1 sequence (P25099 1-326): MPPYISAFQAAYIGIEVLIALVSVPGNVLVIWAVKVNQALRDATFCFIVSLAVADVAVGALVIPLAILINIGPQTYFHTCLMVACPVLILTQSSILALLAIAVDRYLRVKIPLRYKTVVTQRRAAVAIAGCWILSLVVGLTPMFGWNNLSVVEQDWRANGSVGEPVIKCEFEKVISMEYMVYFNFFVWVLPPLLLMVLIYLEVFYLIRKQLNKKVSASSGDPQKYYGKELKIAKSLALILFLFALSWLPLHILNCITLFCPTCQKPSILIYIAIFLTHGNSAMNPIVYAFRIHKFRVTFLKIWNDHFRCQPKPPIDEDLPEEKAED
Method: Whole brain minus cerebellum and brainstem from male Long Evans rats (150-200 g) was homogenized in 30 volumes of ice-cold 0.05M Tris-HCl buffer pH 7.7 using a Brinkman Polytron PT-10, (setting number 6 for 20 seconds) and centrifuged for ten minutes at 20,000 × g (Sorvall RC-2), 4° C. The supernatant was discarded, and the pellet was resuspended and centrifuged as before. The pellet was resuspended in 20 ml Tris-HCl buffer containing two International Units/ml of adenosine deaminase (Sigma type III from calf intestinal mucosa), incubated at 37° C. for 30 minutes, then subsequently at 0° C. for ten minutes. […]
Tissue homogenate (10 mg/ml) was incubated in 0.05M Tris-HCl buffer pH 7.7 containing 1.0 nM [^3 H]-N^6 -cyclohexyladenosine (^3 H]-CHA) with or without test agents in triplicate for one hour at 25° C. […] The radio-labeled ligand retained on the filter was measured by liquid scintillation spectrophotometry after shaking the filters for one hour or longer on a mechanical shaker in 10 ml of Beckman Ready-Solv HP scintillation cocktail.
Nonspecific binding was defined as the binding which occurred in the presence of 1 mM theophylline. […] The Scatchard plot was calculated by linear regression of the line obtained by plotting the amount of radioligand bound (pmoles/gram of tissue) versus [formula] […] The maximal number of binding sites (Bmax) was calculated from the Scatchard plot.

[2] = biological target: T2, adenosine A2 receptor (Rattus norvegicus, UniProt P30543); test: Adenosine Receptor Binding, A2 Receptor Affinity (RBA2), [3H]NECA, rat striatal membranes; settings: 4 nM [3H]NECA, 50 nM N6-cyclopentyladenosine
T2 construct: 5 mg original tissue weight of rat weight of rat striatal membranes; tissue Pel-Freez (Rogers, Arkansas); host or cells: rat brain striatum membranes (Sprague-Dawley; Long-Evans hooded rats gave essentially identical results)
Method: Brains from 200-500 g mixed sex Sprague-Dawley rats were purchased from Pel-Freez (Rogers, Arkansas). Fresh brains from male Long-Evans hooded rats (Blue Spruce Farms, Altamont, NY) gave essentially identical results. Brains were thawed and then kept on ice while the striata were dissected out. Striata were disrupted in 10 vol of ice-cold 50 mM Tris.HCl (pH 7.7 at 25° C., pH 8.26 at 5° C.) (Tris) for 30 seconds in a Polytron PT-10 (Brinkmann) at setting 5. The suspension was centrifuged at 50,000 xg for ten minutes, the supernatant discarded, the pellet resuspended in 10 vol ice-cold Tris as above, recentrifuged, resuspended at 1 g/5 ml, and stored in plastic vials at -70° C. (stable for at least six months). When needed, tissue was thawed at room temperature, disrupted in a Polytron, and kept on ice until used. […]
Incubations were terminated by filtration through 2.4 cm GF/B filters under reduced pressure. […] Filters were put in scintillation vials, 8 ml of Formula 947 scintillation fluid added, and the vials left overnight, shaken, and counted in a liquid scintillation counter at 40% efficiency.
Nonspecific binding was defined as binding in the presence of 100 μM N^6 -cyclopentyladenosine, and specific binding was defined as total binding minus nonspecific binding. The IC50 was calculated by weighted nonlinear least squares curve-fitting to the mass-action equation. […]

T2 sequence (P30543 whole entry): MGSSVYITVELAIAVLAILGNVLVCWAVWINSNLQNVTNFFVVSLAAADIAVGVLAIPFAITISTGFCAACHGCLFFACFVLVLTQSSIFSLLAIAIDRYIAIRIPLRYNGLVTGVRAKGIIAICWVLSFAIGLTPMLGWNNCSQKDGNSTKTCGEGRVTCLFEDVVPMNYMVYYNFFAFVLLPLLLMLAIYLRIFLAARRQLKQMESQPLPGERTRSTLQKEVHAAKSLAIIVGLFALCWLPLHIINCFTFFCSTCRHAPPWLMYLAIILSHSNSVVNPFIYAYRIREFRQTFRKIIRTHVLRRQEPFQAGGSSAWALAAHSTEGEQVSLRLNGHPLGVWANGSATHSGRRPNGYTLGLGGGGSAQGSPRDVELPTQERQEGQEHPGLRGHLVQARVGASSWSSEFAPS

`C[C@H](O)CNc1ncnc2c1ncn2[C@@H]1O[C@H](CO)[C@@H](O)[C@H]1O` [N^6-[(S)-2-hydroxypropyl]adenosine, N^6-[(S)-2-Hydroxypropyl]adenosine] was tested, and the IC50 [1] was 0.006 µM and the IC50 [2] was 14 µM.
